Results reported in ChEMBL document CHEMBL1201862, “PubChem BioAssay data set” (2004).
Activity calls are given as the source filed them.

What was measured:
[1] = Trypanosoma cruzi growth suppression in host cells – NIH3T3 host cells, beta-gal luminescence, confirmation (AID 2044); assay type: functional, cell-based;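 further: intracellular parasites grown in NIH/3T3 mouse fibroblasts as host cells; luminescent beta-galactosidase reporter signal from transgenic T. cruzi replicating inside host cells; inhibitors lower the luminescence signal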
Escherichia coli [2] = assay: microbe, parasite or virus in culture
[3] = NIH3T3 cell viability loss – ATP luminescence, mouse fibroblasts, counter-screen, dose response (AID 2010); assay type: functional, cell-based;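 further: cells exposed to compound for about 90 hours before reading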
Escherichia coli [4] = assay: microbe, parasite or virus in culture; remark: listed apart in the source
A-375 = assay: proliferation inhibition in MITF-low A375 cells – cell-based, cherry-pick samples, set 2, counter-screen for MITF modulator project, dose response (AID 540335); assay type: functional; details: Homo sapiens
[5] = biological target: T1, Microphthalmia-associated transcription factor (Homo sapiens, UniProt O75030); assay: reducers of TRPM1 reporter luminescence, concentration series – cell-based, SK-MEL-5, cherry-picked, set 3, MITF inhibitor project, dose response (AID 493073); assay type: functional;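 further: SK-MEL-5 melanoma cells with luciferase driven by the MITF target TRPM1 promoter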
T1 sequence (O75030 whole entry): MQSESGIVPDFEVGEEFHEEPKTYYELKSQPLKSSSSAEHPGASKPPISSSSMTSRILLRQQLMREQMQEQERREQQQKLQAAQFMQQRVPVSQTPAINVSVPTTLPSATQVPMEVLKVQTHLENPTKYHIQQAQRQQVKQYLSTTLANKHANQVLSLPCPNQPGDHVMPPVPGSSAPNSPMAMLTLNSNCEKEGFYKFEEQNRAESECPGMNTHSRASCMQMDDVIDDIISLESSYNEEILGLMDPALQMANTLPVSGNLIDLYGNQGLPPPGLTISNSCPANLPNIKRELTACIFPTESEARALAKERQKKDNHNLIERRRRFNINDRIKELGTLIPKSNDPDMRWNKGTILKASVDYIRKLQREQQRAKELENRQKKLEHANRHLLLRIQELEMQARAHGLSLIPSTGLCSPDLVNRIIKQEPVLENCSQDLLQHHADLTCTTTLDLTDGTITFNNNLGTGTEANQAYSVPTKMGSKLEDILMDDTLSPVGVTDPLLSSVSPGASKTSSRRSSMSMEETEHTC

[6] = biological target: T2, Ubiquitin-conjugating enzyme E2 N (Homo sapiens, UniProt P61088); assay type: functional;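 further: Dose-response confirmation in a TR-FRET assay detecting UBC13-driven polyubiquitin chain formation, inhibition measured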
T2 sequence (P61088 whole entry): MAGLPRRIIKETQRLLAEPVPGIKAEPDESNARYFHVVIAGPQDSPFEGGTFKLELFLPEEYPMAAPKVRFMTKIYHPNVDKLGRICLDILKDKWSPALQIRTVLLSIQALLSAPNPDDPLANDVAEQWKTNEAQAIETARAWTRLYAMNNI

Large T antigen = Large T antigen (Simian virus 40, UniProt P03070); assay type: functional, Betapolyomavirus macacae;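 further: Confirmatory-stage PubChem screen for compounds that inhibit SV40 T antigen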
Large T antigen, sequence (P03070 whole entry): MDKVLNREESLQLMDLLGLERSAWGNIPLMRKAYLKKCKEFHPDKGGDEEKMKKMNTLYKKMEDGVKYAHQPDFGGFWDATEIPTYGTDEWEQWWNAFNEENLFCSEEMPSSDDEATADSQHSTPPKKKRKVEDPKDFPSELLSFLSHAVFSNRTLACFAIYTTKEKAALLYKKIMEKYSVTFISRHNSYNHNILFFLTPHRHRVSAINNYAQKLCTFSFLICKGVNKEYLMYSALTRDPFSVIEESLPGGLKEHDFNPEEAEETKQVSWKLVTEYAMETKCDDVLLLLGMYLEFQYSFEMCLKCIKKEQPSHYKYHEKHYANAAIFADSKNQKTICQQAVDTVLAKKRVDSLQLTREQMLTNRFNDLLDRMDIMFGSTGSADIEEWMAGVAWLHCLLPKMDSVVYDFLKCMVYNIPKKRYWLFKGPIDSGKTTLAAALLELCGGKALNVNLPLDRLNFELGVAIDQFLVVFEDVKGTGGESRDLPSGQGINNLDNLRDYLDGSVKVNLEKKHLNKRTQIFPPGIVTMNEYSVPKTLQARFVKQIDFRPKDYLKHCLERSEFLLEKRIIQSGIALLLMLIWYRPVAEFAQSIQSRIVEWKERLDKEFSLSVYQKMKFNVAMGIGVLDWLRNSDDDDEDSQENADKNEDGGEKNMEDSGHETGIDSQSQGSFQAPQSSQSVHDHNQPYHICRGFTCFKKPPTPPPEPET

Hexokinase HKDC1 = biological target: T3, Hexokinase HKDC1 (Homo sapiens, UniProt Q2TB90); assay: inhibition of HKDC1 glucose phosphorylation – biochemical, W721R variant, dose response (AID 504729); assay type: functional
T3 sequence (Q2TB90 whole entry): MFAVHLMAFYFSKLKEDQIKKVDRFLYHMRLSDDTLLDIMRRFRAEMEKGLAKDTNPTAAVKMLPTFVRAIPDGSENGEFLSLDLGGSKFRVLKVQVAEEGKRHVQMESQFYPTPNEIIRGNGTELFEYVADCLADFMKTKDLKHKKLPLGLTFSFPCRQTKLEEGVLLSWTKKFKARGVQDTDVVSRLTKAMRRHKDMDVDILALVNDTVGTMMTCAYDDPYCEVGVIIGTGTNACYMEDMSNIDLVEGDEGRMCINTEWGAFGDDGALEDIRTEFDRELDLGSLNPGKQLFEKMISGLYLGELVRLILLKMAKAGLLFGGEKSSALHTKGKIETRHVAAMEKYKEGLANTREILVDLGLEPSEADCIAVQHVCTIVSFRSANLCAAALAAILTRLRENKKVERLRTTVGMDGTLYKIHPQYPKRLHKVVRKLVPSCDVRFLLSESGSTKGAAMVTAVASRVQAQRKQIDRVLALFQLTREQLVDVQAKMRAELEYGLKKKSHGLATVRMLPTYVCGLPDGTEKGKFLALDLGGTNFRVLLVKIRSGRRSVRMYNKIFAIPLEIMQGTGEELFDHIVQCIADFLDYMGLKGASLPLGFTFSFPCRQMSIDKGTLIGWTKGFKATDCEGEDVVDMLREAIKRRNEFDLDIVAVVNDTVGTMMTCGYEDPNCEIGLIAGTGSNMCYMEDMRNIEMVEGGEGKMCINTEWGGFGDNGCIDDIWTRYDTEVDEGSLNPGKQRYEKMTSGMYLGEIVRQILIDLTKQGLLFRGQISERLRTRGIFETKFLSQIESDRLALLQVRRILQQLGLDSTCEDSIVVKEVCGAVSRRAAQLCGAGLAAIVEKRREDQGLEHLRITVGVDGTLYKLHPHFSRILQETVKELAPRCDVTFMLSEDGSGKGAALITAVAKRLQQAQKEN

[7] = biological target: FAD-linked sulfhydryl oxidase ALR (Homo sapiens, UniProt P55789); assay: ALR-catalysed DTT oxidation blockers – biochemical, H2O2 detection, luminescence, cherry-pick, dose response (AID 493248)
FAD-linked sulfhydryl oxidase ALR, sequence (P55789 whole entry): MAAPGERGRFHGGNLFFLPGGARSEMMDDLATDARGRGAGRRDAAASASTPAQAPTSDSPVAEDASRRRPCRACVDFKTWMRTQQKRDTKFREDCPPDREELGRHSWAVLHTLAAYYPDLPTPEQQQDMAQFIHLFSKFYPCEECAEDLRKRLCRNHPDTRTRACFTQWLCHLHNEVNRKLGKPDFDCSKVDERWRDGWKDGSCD

[8] = Luminescence Cell-Based Dose Response HTS to Identify Inhibitors of 5'UTR Stem-Loop Driven Prion Protein mRNA Translation in H4 Neuroglioblastoma Cells. [Related pubchem assays: 1827 (Project Summary), 1813 (Primary HTS)]; assay type: functional
[9] = toxicity toward cultured mammalian cells – cell-based, plate reader, cherry-pick samples, cytotoxicity control, dose response (AID 504397); assay type: functional
[10] = biological target: T4, Zinc finger protein mex-5 (Caenorhabditis elegans, UniProt Q9XUB2); assay: potency of MEX-5 RNA-binding blockers – biochemical, C. elegans, fluorescence polarization, dose response (AID 1960)
T4 sequence (Q9XUB2 whole entry): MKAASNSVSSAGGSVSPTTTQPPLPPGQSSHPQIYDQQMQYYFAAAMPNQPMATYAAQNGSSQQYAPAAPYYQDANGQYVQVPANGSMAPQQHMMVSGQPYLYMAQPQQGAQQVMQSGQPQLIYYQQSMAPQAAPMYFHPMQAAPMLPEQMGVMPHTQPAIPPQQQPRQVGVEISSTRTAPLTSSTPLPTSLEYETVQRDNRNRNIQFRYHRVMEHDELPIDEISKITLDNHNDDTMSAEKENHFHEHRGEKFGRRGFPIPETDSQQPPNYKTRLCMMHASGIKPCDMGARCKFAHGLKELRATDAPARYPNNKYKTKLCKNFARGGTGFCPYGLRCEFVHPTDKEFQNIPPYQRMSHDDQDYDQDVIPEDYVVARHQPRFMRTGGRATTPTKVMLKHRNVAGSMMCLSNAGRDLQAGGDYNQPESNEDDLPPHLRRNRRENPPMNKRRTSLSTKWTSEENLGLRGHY

[11] = biological target: Dual specificity tyrosine-phosphorylation-regulated kinase 1A (Rattus norvegicus, UniProt Q63470); assay type: biochemical, Homo sapiens
[12] = alpha-synuclein stem-loop luciferase translation blockers – H4 neuroglioma cells, luminescence, confirmation (AID 1988); assay type: functional, cell-based
[13] = biological target: T5, RNA-binding protein pos-1 (Caenorhabditis elegans, UniProt G5EF15); assay: disruptors of C. elegans POS-1 RNA interaction – biochemical, fluorescence polarization, dose response (AID 1964);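 further: purified POS-1 fused to maltose binding protein made in E. coli; potency of compounds blocking POS-1 binding to fluorescent RNA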
T5 sequence (G5EF15 whole entry): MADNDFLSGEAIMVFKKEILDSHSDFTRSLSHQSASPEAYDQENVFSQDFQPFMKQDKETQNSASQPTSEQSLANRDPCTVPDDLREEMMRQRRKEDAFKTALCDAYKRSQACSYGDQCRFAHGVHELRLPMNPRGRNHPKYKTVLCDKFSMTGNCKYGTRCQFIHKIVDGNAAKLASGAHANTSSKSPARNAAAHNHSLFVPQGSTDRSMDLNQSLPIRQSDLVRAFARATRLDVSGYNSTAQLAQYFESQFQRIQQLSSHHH

Protein RecA = biological target: T6, Protein RecA (Mycobacterium tuberculosis, UniProt P9WHJ3); assay: Fluorescence Cell-Free Homogeneous Dose Retest to Identify Inhibitors of RecA-Intein Splicing Activity. [Related pubchem assays (depositor defined):AID2097, AID2223, AID489010, AID492950]; assay type: functional
T6 sequence (P9WHJ3 whole entry): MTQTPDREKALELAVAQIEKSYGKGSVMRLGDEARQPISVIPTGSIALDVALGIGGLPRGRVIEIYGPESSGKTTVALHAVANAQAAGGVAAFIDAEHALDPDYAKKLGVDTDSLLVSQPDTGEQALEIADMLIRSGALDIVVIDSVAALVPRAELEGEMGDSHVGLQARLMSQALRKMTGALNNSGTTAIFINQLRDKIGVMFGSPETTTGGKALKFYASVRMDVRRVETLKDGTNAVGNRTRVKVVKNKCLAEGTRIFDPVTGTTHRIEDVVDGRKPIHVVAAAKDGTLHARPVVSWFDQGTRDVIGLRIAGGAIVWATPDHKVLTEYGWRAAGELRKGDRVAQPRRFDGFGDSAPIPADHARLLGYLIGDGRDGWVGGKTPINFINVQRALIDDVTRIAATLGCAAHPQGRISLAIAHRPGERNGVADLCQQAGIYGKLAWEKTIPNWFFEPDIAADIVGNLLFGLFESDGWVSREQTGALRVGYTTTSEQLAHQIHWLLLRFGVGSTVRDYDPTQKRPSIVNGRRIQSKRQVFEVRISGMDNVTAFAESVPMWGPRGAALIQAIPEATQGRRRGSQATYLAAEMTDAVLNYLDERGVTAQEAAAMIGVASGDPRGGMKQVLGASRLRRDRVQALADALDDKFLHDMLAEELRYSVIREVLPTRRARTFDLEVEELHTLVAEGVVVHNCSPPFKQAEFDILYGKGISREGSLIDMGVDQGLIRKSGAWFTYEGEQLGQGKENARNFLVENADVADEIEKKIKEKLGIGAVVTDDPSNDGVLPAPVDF

[14] = luciferase reporter signal suppression in cells – H4 neuroglioma cells, luminescence, dose response (AID 1990); assay type: functional, cell-based
CAAX prenyl protease 2 = biological target: T7, CAAX prenyl protease 2 (Saccharomyces cerevisiae S288c, UniProt Q03530); assay type: biochemical
T7 sequence (Q03530 whole entry): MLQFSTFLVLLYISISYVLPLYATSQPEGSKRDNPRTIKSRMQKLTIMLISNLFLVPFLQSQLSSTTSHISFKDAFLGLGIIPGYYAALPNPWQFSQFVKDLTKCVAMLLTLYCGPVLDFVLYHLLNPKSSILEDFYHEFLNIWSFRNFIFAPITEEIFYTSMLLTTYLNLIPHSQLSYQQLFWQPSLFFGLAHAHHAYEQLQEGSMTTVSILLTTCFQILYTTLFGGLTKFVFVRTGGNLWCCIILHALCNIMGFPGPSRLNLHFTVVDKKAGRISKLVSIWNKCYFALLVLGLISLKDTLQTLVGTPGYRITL

For `N#C/C(=C\c1ccc(N2CCCCC2)c([N+](=O)[O-])c1)c1nn(-c2ccccc2)c(N)c1C#N`, the EC50 [1] was 1.81 µM (active), the AC50 (Escherichia coli [2]) was > 380 µM (inactive) and the EC50 [3] was > 30 µM (not active). The AC50 (Escherichia coli [4]) was 26.2 µM (active).

In the case of `Cc1cccc(/C=C2/Sc3ccc(C(=O)NCCN4CCCC4)cc3NC2=O)c1`, the AC50 (A-375) is reported as 21.1 µM (active), the AC50 [5] is reported as 18.4 µM (active) and the IC50 [6] is reported as > 20 µM (inactive).

In the case of `CN1c2ccc(C=O)c3c(C=O)ccc(c23)N(C)C1(C)C`, the IC50 (Large T antigen) is reported as 23 µM (active), the IC50 (Hexokinase HKDC1) is reported as 13.1 µM (active) and the AC50 [7] is reported as 1.54 µM (active). For the same compound, the EC50 [8] was 15.9 µM (active), the AC50 [9] was 45.7 µM (active) and the EC50 [10] was 5.37 µM (inconclusive). The AC50 [11] was 0.199 µM (active), the EC50 [12] was > 120 µM (not active) and the EC50 [13] was 74 µM (inconclusive). For the same compound, the EC50 (Protein RecA) was 59.9 µM (inconclusive), the EC50 [14] was 17.8 µM (active) and the AC50 (CAAX prenyl protease 2) was 10.5 µM (active).
